Tests used:
[1] = Renal excretion of Compound 1 in monkey; assay type: in vivo, male cynomolgus monkeys; details: IV 1 mg/kg
Experimental: An important factor for insuring appropriate long term drug dosing and correct steady-state drug concentrations in patients is drug clearance. In general, decreased drug clearance results in higher drug concentrations and greater drug effects. In order to understand renal clearance of Compound 1, the percent of administered dose recovered in urine following a single IV dose was assessed in three animal species. Three separate studies in male Sprague Dawley rats, male beagle dogs and male cynomolgus monkeys, respectively, were conducted and the procedure and experimental results are described below.
Male cynomolgus monkeys (N=3), having body weights of 4.42-5.81 kg, received an IV dose of compound 1 at 1 mg/kg. Compound 1 was dissolved in PEG-200:ethanol:water (40:10:50) and filtered through a […] polyvinyl difluoride (PVDF) syringe filter prior to administration. The monkeys had access to food ad libitum before and after administration of Compound 1. Urine samples were collected on dry ice during the collection interval periods, the sample volumes were recorded, and the urine acidified with acetic acid to a final concentration of approximately 2% acetic acid. Aliquots were obtained and frozen (−70° C.) prior to bioanalysis.
Monkey urine concentrations of Compound 1 were determined by LC/MS/MS. Urine samples were thawed and diluted in plasma K2EDTA (1:4). […]

[2] = molecular target: T1, human neprilysin (EC 3.4.24.11; NEP) (Homo sapiens, UniProt P08473); assay: In vitro assay for the quantitation of inhibitor potency at human NEP; assay type: biochemical; details: recombinant human NEP, fluorogenic peptide substrate 10 μM, 37° C.; read-out: pKi at human NEP (converted)
T1 construct: purchased R&D Systems 1182-ZN
T1 sequence (P08473 52-750 limits assumed): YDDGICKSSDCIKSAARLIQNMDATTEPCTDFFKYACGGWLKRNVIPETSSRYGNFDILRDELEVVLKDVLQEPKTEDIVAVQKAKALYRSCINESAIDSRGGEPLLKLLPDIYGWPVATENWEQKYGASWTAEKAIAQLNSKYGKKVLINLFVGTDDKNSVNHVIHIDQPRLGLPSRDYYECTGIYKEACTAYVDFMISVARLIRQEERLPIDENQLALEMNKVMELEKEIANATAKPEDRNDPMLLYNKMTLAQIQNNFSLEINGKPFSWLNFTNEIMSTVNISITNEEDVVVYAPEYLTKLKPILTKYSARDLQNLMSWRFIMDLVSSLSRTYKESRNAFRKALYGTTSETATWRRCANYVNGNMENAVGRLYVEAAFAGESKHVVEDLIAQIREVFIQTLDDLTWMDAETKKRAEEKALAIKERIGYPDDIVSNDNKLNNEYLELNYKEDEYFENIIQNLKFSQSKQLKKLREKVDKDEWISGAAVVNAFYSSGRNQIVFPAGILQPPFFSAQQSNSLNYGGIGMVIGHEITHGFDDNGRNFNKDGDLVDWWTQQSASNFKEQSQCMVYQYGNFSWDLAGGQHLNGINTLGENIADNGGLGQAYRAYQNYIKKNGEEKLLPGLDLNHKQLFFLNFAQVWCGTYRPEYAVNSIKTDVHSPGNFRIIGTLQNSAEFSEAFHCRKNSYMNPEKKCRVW
Experimental: The inhibitory activity at human neprilysin (EC 3.4.24.11; NEP) was determined as follows.
Recombinant human NEP was obtained commercially (R&D Systems, Minneapolis, Minn., catalog number 1182-ZN). The fluorogenic peptide substrate Mca-D-Arg-Arg-Leu-Dap-(Dnp)-OH (Medeiros et al. (1997) Braz. J. Med. Biol. Res. 30:1157-62; Anaspec, San Jose, Calif.) was used.
The assay was performed in 384-well white opaque plates at 37° C. using the fluorogenic peptide substrate at a concentration of 10 μM in Assay Buffer (50 mM HEPES, pH 7.5, 100 mM NaCl, 0.01% polyethylene glycol sorbitan monolaurate (Tween-20), 10 μM ZnSO4).
Test compounds were assayed over the range of concentrations from 10 μM to 20 pM. Test compounds were added to the enzyme and incubated for 30 minute at 37° C. prior to initiating the reaction by the addition of substrate. Reactions were terminated after 20 minutes of incubation at 37° C. by the addition of glacial acetic acid to a final concentration of 3.6% (v/v).
Plates were read on a fluorometer with excitation and emission wavelengths set to […]. Inhibition constants were obtained by nonlinear regression of the data using the equation (GraphPad Software, Inc., San Diego, Calif.): v=v0/[1+(I/K′)] where v is the reaction rate, v0 is the uninhibited reaction rate, I is the inhibitor concentration and K′ is the apparent inhibition constant.
The compounds were tested in this assay and found to have pKi values at human NEP as follows.

Amount of Compound 1 Excreted in Urine over Collection Period (0-24 hrs) Mean [1]: 157 µg
Ki [2]: 0.2 nM
SMILES: Cc1cnc(C(=O)N[C@H](Cc2ccc(-c3cc(Cl)ccc3F)cc2)C[C@@H](O)C(=O)O)o1 [Compound 1, (2R,4R)-5-(5′-Chloro-2′-fluorobiphenyl-4-yl)-2-hydroxy-4-[(5-methyloxazole-2-carbonyl)amino]pentanoic Acid]

Source: patent US11642332B2, “(2R,4R)-5-(5′-chloro-2′-fluorobiphenyl-4-yl)-2-hydroxy-4-[(5-methyloxazole-2-carbonyl)amino]pentanoic acid” (THERAVANCE BIOPHARMA R&D IP, LLC, priority 2015, dated 2023)
